Values joined by “and” are separate entries in the source; they are usually repeats but may differ in a detail not shown here. Equal entries are not always repeated.
Organism: Rattus norvegicus
Assay: DrugMatrix - Regimen: Daily Repeat
Format: toxicity, organism-based, Sprague-Dawley
Design: regimen Daily Repeat, gender Male, age 6-8 weeks
Conditions: in vivo, iv; for ABSOLUTE BASOPHIL / ABSOLUTE EOSINOPHIL / ABSOLUTE LYMPHOCYTE / ABSOLUTE MONOCYTE / ABSOLUTE SEGMENTED NEUTROPHIL / BASOPHIL / EOSINOPHIL / ERYTHROCYTE COUNT / HEMATOCRIT / HEMOGLOBIN / LEUKOCYTE COUNT / LYMPHOCYTE / MEAN CORPUSCULAR HEMOGLOBIN / MEAN CORPUSCULAR HEMOGLOBIN CONCENTRATION / MEAN CORPUSCULAR VOLUME / MONOCYTE / NEUTROPHIL / NUCLEATED RED BLOOD CELLS / PLATELET COUNT: tissue Blood; for ALANINE AMINOTRANSFERASE / ALBUMIN / ALKALINE PHOSPHATASE / ASPARTATE AMINOTRANSFERASE / BLOOD UREA NITROGEN / CARBON DIOXIDE / CHLORIDE / CHOLESTEROL / CREATINE PHOSPHOKINASE / CREATININE / GLUCOSE / LACTATE DEHYDROGENASE / LIPASE / PHOSPHORUS / POTASSIUM / SODIUM / TOTAL BILIRUBIN / TOTAL PROTEIN / URIC ACID: tissue Plasma
[1] = 0 mg/kg, 72 h, dose level Control, time 3 day, vehicle 100 % SALINE
[2] = 0 mg/kg, 120 h, dose level Control, time 5 day, vehicle 10 % DMSO/SALINE
[3] = 0 mg/kg, 120 h, dose level Control, time 5 day, vehicle 100 % SALINE
[4] = 0 mg/kg, […], dose level Control, time 14 day, vehicle 100 % SALINE
[5] = 4 mg/kg, 120 h, dose level High, time 5 day, vehicle 10 % DMSO/SALINE

CC(=O)[C@]1(O)Cc2c(O)c3c(c(O)c2[C@@H](O[C@H]2C[C@H](N)[C@H](O)[C@H](C)O2)C1)C(=O)c1ccccc1C3=O [IDARUBICIN]
ABSOLUTE BASOPHIL [1]: 0 CELLS/uL
ABSOLUTE EOSINOPHIL [1]: 247.67 CELLS/uL
ABSOLUTE LYMPHOCYTE [1]: 13190.83 CELLS/uL
ABSOLUTE MONOCYTE [1]: 307.67 CELLS/uL
ABSOLUTE SEGMENTED NEUTROPHIL [1]: 1220.5 CELLS/uL
BASOPHIL [1]: 0%
EOSINOPHIL [1]: 1.67%
ERYTHROCYTE COUNT [1]: 5.47 x10E6/uL
HEMATOCRIT [1]: 33.98%
HEMOGLOBIN [1]: 12.65 G/DL
LEUKOCYTE COUNT [1]: 14.97 x10E3/uL
LYMPHOCYTE [1]: 88.17%
MEAN CORPUSCULAR HEMOGLOBIN [1]: 23.17 pg
MEAN CORPUSCULAR HEMOGLOBIN CONCENTRATION [1]: 37.23 G/DL
MEAN CORPUSCULAR VOLUME [1]: 62.25 fL
MONOCYTE [1]: 2%
NEUTROPHIL [1]: 8.17%
NUCLEATED RED BLOOD CELLS [1]: 0 /100WBC
PLATELET COUNT [1]: 1307.17 x10E3/uL
ALANINE AMINOTRANSFERASE [1]: 39.67 u/L
ALBUMIN [1]: 4.08 G/DL
ALKALINE PHOSPHATASE [1]: 383.17 u/L
ASPARTATE AMINOTRANSFERASE [1]: 88.83 u/L
BLOOD UREA NITROGEN [1]: 18.5 mg/dL
CARBON DIOXIDE [1]: 27.5 mmol/L
CHLORIDE [1]: 103 MEQ/L
CHOLESTEROL [1]: 67.33 mg/dL
CREATINE PHOSPHOKINASE [1]: 414.67 u/L
CREATININE [1]: 0.19 mg/dL
GLUCOSE [1]: 149.33 mg/dL
LACTATE DEHYDROGENASE [1]: 536.83 u/L
LIPASE [1]: 8.83 u/L
PHOSPHORUS [1]: 11.13 mg/dL
POTASSIUM [1]: 6.23 MEQ/L
SODIUM [1]: 144.42 MEQ/L
TOTAL BILIRUBIN [1]: 0.18 mg/dL
TOTAL PROTEIN [1]: 5.57 G/DL
URIC ACID [1]: 1.23 mg/dL
BASOPHIL [2]: 0.28%
EOSINOPHIL [2]: 0.55%
ERYTHROCYTE COUNT [2]: 7.09 x10E6/uL
HEMATOCRIT [2]: 45.85%
HEMOGLOBIN [2]: 14.93 G/DL
LEUKOCYTE COUNT [2]: 7.4 x10E3/uL
LYMPHOCYTE [2]: 84.22%
MEAN CORPUSCULAR HEMOGLOBIN [2]: 21.05 pg
MEAN CORPUSCULAR HEMOGLOBIN CONCENTRATION [2]: 32.5 G/DL
MEAN CORPUSCULAR VOLUME [2]: 64.72 fL
MONOCYTE [2]: 1.4%
NEUTROPHIL [2]: 12.45%
PLATELET COUNT [2]: 1476.75 x10E3/uL
ABSOLUTE SEGMENTED NEUTROPHIL [3]: 1104.67 CELLS/uL
BASOPHIL [3]: 1.05% and 0%
EOSINOPHIL [3]: 0.23% and 1%
ERYTHROCYTE COUNT [3]: 6.68 x10E6/uL and 5.73 x10E6/uL
HEMATOCRIT [3]: 42.27% and 36.85%
HEMOGLOBIN [3]: 13 G/DL and 13.67 G/DL
LEUKOCYTE COUNT [3]: 19.36 x10E3/uL and 15.13 x10E3/uL
LYMPHOCYTE [3]: 62.82% and 89.5%
MEAN CORPUSCULAR HEMOGLOBIN [3]: 19.43 pg and 23.87 pg
MEAN CORPUSCULAR HEMOGLOBIN CONCENTRATION [3]: 30.68 G/DL and 37.1 G/DL
MEAN CORPUSCULAR VOLUME [3]: 63.25 fL and 64.33 fL
MONOCYTE [3]: 3.45% and 2.33%
NUCLEATED RED BLOOD CELLS [3]: 0.17 /100WBC
PLATELET COUNT [3]: 1275.5 x10E3/uL and 1266 x10E3/uL
ALANINE AMINOTRANSFERASE [2]: 21.25 u/L
ALBUMIN [2]: 4.28 G/DL
ALKALINE PHOSPHATASE [2]: 337.5 u/L
ASPARTATE AMINOTRANSFERASE [2]: 87.25 u/L
BLOOD UREA NITROGEN [2]: 13 mg/dL
CARBON DIOXIDE [2]: 27 mmol/L
CHLORIDE [2]: 106.75 MEQ/L
CHOLESTEROL [2]: 54.5 mg/dL
CREATINE PHOSPHOKINASE [2]: 424.75 u/L
CREATININE [2]: 0.47 mg/dL
GLUCOSE [2]: 135.75 mg/dL
LACTATE DEHYDROGENASE [2]: 200.25 u/L
LIPASE [2]: 9 u/L
PHOSPHORUS [2]: 11.62 mg/dL
POTASSIUM [2]: 5.58 MEQ/L
SODIUM [2]: 150.5 MEQ/L
TOTAL BILIRUBIN [2]: 0.25 mg/dL
TOTAL PROTEIN [2]: 6.33 G/DL
URIC ACID [2]: 1.75 mg/dL
ALANINE AMINOTRANSFERASE [3]: 62.75 u/L and 49.17 u/L
ALBUMIN [3]: 3.2 G/DL and 4.22 G/DL
ALKALINE PHOSPHATASE [3]: 320.75 u/L and 352.67 u/L
ASPARTATE AMINOTRANSFERASE [3]: 112.25 u/L and 95.17 u/L
BLOOD UREA NITROGEN [3]: 14.25 mg/dL and 18.83 mg/dL
CARBON DIOXIDE [3]: 36.25 mmol/L and 25.67 mmol/L
CHLORIDE [3]: 106.25 MEQ/L and 102.67 MEQ/L
CHOLESTEROL [3]: 63.5 mg/dL and 66.83 mg/dL
CREATINE PHOSPHOKINASE [3]: 757.75 u/L and 550.33 u/L
CREATININE [3]: 0.23 mg/dL
GLUCOSE [3]: 175.5 mg/dL and 186.17 mg/dL
LACTATE DEHYDROGENASE [3]: 205.25 u/L and 471.33 u/L
PHOSPHORUS [3]: 11.35 mg/dL and 12.3 mg/dL
POTASSIUM [3]: 6.7 MEQ/L and 6.35 MEQ/L
SODIUM [3]: 151.25 MEQ/L and 143.57 MEQ/L
TOTAL BILIRUBIN [3]: 0.2 mg/dL and 0.18 mg/dL
TOTAL PROTEIN [3]: 5.78 G/DL and 6.05 G/DL
URIC ACID [3]: 1.23 mg/dL and 2 mg/dL
ABSOLUTE BASOPHIL [4]: 400 cells/µL
ABSOLUTE EOSINOPHIL [4]: 46.7 cells/µL
ABSOLUTE LYMPHOCYTE [4]: 18600 cells/µL
ABSOLUTE MONOCYTE [4]: 760 cells/µL
BASOPHIL [4]: 1.73%
EOSINOPHIL [4]: 0.2%
ERYTHROCYTE COUNT [4]: 7.04 x10E6/uL
HEMATOCRIT [4]: 41.83%
HEMOGLOBIN [4]: 13.07 G/DL
LEUKOCYTE COUNT [4]: 24.9 x10E3/uL
LYMPHOCYTE [4]: 74.43%
MEAN CORPUSCULAR HEMOGLOBIN [4]: 18.63 pg
MEAN CORPUSCULAR HEMOGLOBIN CONCENTRATION [4]: 31.33 G/DL
MEAN CORPUSCULAR VOLUME [4]: 59.43 fL
MONOCYTE [4]: 3.13%
NEUTROPHIL [4]: 18.97%
PLATELET COUNT [4]: 1314.33 x10E3/uL
ALANINE AMINOTRANSFERASE [4]: 42.67 u/L
ALBUMIN [4]: 3.6 G/DL
ALKALINE PHOSPHATASE [4]: 298 u/L
ASPARTATE AMINOTRANSFERASE [4]: 67.33 u/L
BLOOD UREA NITROGEN [4]: 14.33 mg/dL
CARBON DIOXIDE [4]: 41.67 mmol/L
CHLORIDE [4]: 102.67 MEQ/L
CHOLESTEROL [4]: 62.67 mg/dL
CREATINE PHOSPHOKINASE [4]: 338.67 u/L
CREATININE [4]: 0.7 mg/dL
GLUCOSE [4]: 147.33 mg/dL
LACTATE DEHYDROGENASE [4]: 94.33 u/L
LIPASE [4]: 80 u/L
PHOSPHORUS [4]: 9.6 mg/dL
POTASSIUM [4]: 6.67 MEQ/L
SODIUM [4]: 148 MEQ/L
TOTAL BILIRUBIN [4]: 0.2 mg/dL
TOTAL PROTEIN [4]: 6.67 G/DL
URIC ACID [4]: 1.03 mg/dL
BASOPHIL [5]: 0.8%
EOSINOPHIL [5]: 2.95%
ERYTHROCYTE COUNT [5]: 7.46 x10E6/uL
HEMATOCRIT [5]: 47.3%
HEMOGLOBIN [5]: 15.42 G/DL
LEUKOCYTE COUNT [5]: 0.0975 x10E3/uL
LYMPHOCYTE [5]: 69%
MEAN CORPUSCULAR HEMOGLOBIN [5]: 20.73 pg
MEAN CORPUSCULAR HEMOGLOBIN CONCENTRATION [5]: 32.67 G/DL
MEAN CORPUSCULAR VOLUME [5]: 63.45 fL
MONOCYTE [5]: 1.3%
NEUTROPHIL [5]: 23.9%
PLATELET COUNT [5]: 879.25 x10E3/uL
ALANINE AMINOTRANSFERASE [5]: 11.75 u/L
ALBUMIN [5]: 2.88 G/DL
ALKALINE PHOSPHATASE [5]: 156 u/L
ASPARTATE AMINOTRANSFERASE [5]: 63.5 u/L
BLOOD UREA NITROGEN [5]: 18 mg/dL
CARBON DIOXIDE [5]: 25 mmol/L
CHLORIDE [5]: 112 MEQ/L
CHOLESTEROL [5]: 152.75 mg/dL
CREATINE PHOSPHOKINASE [5]: 475.25 u/L
CREATININE [5]: 0.5 mg/dL
GLUCOSE [5]: 116.5 mg/dL
LACTATE DEHYDROGENASE [5]: 183.5 u/L
LIPASE [5]: 13 u/L
PHOSPHORUS [5]: 9.47 mg/dL
POTASSIUM [5]: 5.03 MEQ/L
SODIUM [5]: 151 MEQ/L
TOTAL BILIRUBIN [5]: 0.2 mg/dL
TOTAL PROTEIN [5]: 4.57 G/DL
URIC ACID [5]: 1.45 mg/dL

From ChEMBL document CHEMBL3885881, “DrugMatrix”
